The first data set in a line: method code SF, from DOI: 10.1016/j.ejps.2012.10.019, PMID: 23131797. As to conditions: pH 2.0.
With `CC(C)=CC(=O)OCC(=O)Nc1ccc(S(=O)(=O)N(C)C)cc1`, the logD (commonly the decadic logarithm of the distribution of all forms, ionised or not, between an organic phase and buffer at a given pH) was 2.26.
On the same count and under the same terms, next, `O=C(/C=C/c1ccc2c(c1)OCO2)Nc1ccc2c(c1)OCO2`: 3.72; `Cc1cccc(C)c1NC(=O)Cn1cc(C(=O)C2CC2)c2ccccc21`: 3.47.
Same read-out and setting: next, `Cc1c(NC(=O)CC(c2ccccc2)c2ccccc2)cccc1-n1cnnn1`: 3.2.

Still in this data set, the particulars now being: pH 5.0.
In the case of `CCOC(=O)C(C)(C)N(CCC(C)C)S(=O)(=O)c1ccc([N+](=O)[O-])cc1`, the logD is 4.75.
Compound `CC12CCCC(C(N)=O)(CCC1)C2` showed a logD of 2.73.
Still for that read-out and setting: the value for `O=C(c1ccc(F)cc1)C1CC1` was 2.61; that for `COc1ccccc1Nc1nc(OCC(F)(F)F)nc(OCC(F)(F)F)n1` was 5.27; that for `COC(=O)c1ccc(C)c(NC(=O)Cc2coc3cc4c(cc23)CCC4)c1` was 4.78.
Same read-out and setting: next, `Cc1ccccc1-c1noc(CCl)n1`: 3.3.
Same read-out and setting: next, `CCCN(CC1CC1)C(=S)Nc1cc([N+](=O)[O-])ccc1Cl`: 4.1; `Cc1ccc(-c2cc(C(F)F)n3ncc(C(=O)N4CCSCC4)c3n2)cc1`: 4.55; `COc1ccc(S(=O)(=O)n2c(=O)n(S(=O)(=O)c3ccc(OC)cc3)c3ccccc32)cc1`: 5.22.
`CN(C1=NS(=O)(=O)c2ccccc21)c1ccc(OC(=O)c2ccccc2)cc1`: the logD came out at 4.26.
On the same count and under the same terms, next, `O=C(OCC(=O)N1CCCC1)c1c2ccccc2cc2ccccc12`: 4.09.
On the same count and under the same terms, the value for `O=C(NC1CC1)c1ccc(COc2c(F)c(F)cc(F)c2F)o1` was 3.54.
For the compound `COC(=O)c1ccc(OC(=O)c2cc(OC)cc(OC)c2)cc1`, the logD worked out at 4.64.
On the same count and under the same terms, next, `CCOc1ccc(-n2c(SCC(=O)NC3CC3)nc3sc4c(c3c2=O)CCC4)cc1`: 4.64; `COc1cccc2c1N(C(=O)CC(C)C)C(C)(C)c1ssc(=S)c1-2`: 5.09.
Take `O=C(CS(=O)(=O)Cc1ccccc1)Nc1ccc2c(c1)OCCO2`: the logD was 3.19.
Still for that read-out and setting: the value for `COc1cc(C(=O)Nc2ccccc2C(C)(C)C)cc(OC)c1OC` was 3.61.
With `O=C(COC(=O)c1cccc(S(=O)(=O)N2CCc3ccccc32)c1)Nc1ccc(F)c(F)c1F`, the logD turned out to be 5.31.
The same measure, in the same setting: next, `CCCC(=O)N1CC2(C)CN(C(=O)CCC)CC(C)(C1)C2`: 2.69; `CCOc1ccc(NC(=O)CSc2nc3ccsc3c(=O)n2-c2ccccc2)cc1`: 4.33; `CN(C(=O)c1c(F)c(F)c(F)c(F)c1F)C(C)(C)C`: 3.45.
For the compound `CCOC(=O)c1cnn(C(=O)c2cnn(-c3ccc([N+](=O)[O-])cc3)c2C(F)(F)F)c1N`, the logD was 3.53.
On the same count and under the same terms, next, `COC(=O)c1cnn2c(C(F)(F)F)cc(-c3cc(OC)c(OC)c(OC)c3)nc12`: 4.08; `Cc1ccc(C)c(S(=O)(=O)N(C)c2ccc(OC(=O)c3ccc4c(c3)OCO4)cc2)c1`: 5.87.
On the same count and under the same terms, next, `CC(C)(C)NC(=S)Nc1ccc(F)cc1`: 2.71; `C=CCn1c(C)c(C=C2C(=O)OC3(CCCCC3)OC2=O)c2ccccc21`: 4.62.
Regarding `Cc1cccc(C(=O)Nc2ccc(NC(=O)c3ccccc3)c(C)c2)c1`, the logD came to 4.14.
Compound `O=C(Cn1c(=O)n(-c2ccccc2)c(=O)n1CC(=O)N1CCCCC1)N1CCCCC1` yielded a logD of 2.78.
Same read-out and setting: next, `O=C1CCCC2=C1C(c1ccc(OCc3ccccc3F)cc1)C1=C(CCCC1=O)O2`: 4.92; `CC(C)N(Cc1nc(-c2ccccc2)no1)C(=O)c1ccccc1CCc1ccccc1`: 5.98.
On the same count and under the same terms, next, `O=C(Cn1cc(C(F)(F)F)cc(Cl)c1=O)N1CCN(C(=O)c2ccco2)CC1`: 2.27; `CC(=O)c1cc2ccccc2o1`: 2.15; `COc1ccc(N2C3=C(C(=O)CC(C)(C)C3)C(c3ccc4c(c3)OCO4)C3=C2CC(C)(C)CC3=O)cc1`: 5.72.
On the same count and under the same terms, the value for `COC(=O)c1cc(C(=O)OCC(=O)c2[nH]c(C)c(C(C)=O)c2C)cc([N+](=O)[O-])c1` was 3.82.
In turn, `COC(=O)c1ccc(Br)c(S(=O)(=O)N2CCCCC2)c1` returned a logD of 3.66.
In turn, `O=C(Cn1cc(C(=O)C(F)(F)F)c2cc(Br)ccc21)N1CCCCCC1` showed a logD of 4.62.
Compound `COCc1cc(OC(=O)N(C)C)nc(SCC(=O)C(C)(C)C)n1` came in with a logD of 3.33.
Turning to `COc1cccc(OCCn2c(=O)c3cc4c(=O)n(CCOc5cccc(OC)c5)c(=O)c4cc3c2=O)c1`, the logD is 5.43.
Same read-out and setting: the value for `CCc1ccc(OCC(=O)NCCc2ccc(OC)c(OC)c2)cc1` was 4.22; that for `CCc1cc(=O)oc2c(C)c(OCC(=O)OC(C)(C)C)ccc12` was 4.52; that for `O=C(COC(=O)c1ccccc1F)Nc1ccccc1` was 3.18.
Same read-out and setting: next, `CCCCOc1ccc(C(=O)N(CCN2C(=O)c3ccccc3C2=O)c2cccc(OC)c2)cc1`: 5.35; `COc1cc(C(=O)Nc2cccc(C#N)c2)cc(OC)c1OC`: 3.44.
On the same count and under the same terms, next, `CC(C)NC(=S)N1CCN(S(=O)(=O)c2cccc(C(F)(F)F)c2)CC1`: 3.9.
Turning to `O=C(Nc1ccc(S(=O)(=O)c2ccc(NC(=O)c3cccs3)cc2)cc1)c1cccs1`, the logD was 4.46.
`C#CCOc1c(I)cc(C=C2C(=O)N(C)C(=S)N(C)C2=O)cc1OCC` displayed a logD of 3.72.
The compound `O=C(CSCc1ccccc1)Nc1ccc(-c2ccc([N+](=O)[O-])cc2)cc1` returned a logD of 5.38.
Compound `COc1c(Cl)ccc(Cl)c1C(=O)Nc1ccc(C)cc1C` yielded a logD of 4.
On the same count and under the same terms, the value for `Cn1c2ccccc2n2c3nc(C#N)c(C#N)nc3c(C#N)c12` was 3.61.
The same measure, in the same setting: next, `COc1ccc(C(C)=O)cc1COC(=O)c1cc(Cl)ccc1Cl`: 4.45.
With `CCCCC(=O)NC1C2CC3CC(C2)CC1C3` (centres undefined), the logD amounted to 3.8.
For the compound `COc1cc2c(cc1OC)CN(C(=O)c1cccc(S(=O)(=O)N3CCCCC3)c1)CC2`, the logD stood at 4.2.

The same data set, now with this note: pH 6.5.
In turn, `CS(=O)(=O)N(CC(=O)Nc1c(F)cccc1F)c1cc(Cl)c(Cl)cc1Cl` came in with a logD of 4.34.
Same read-out and setting: next, `CCCn1c(SCc2cc(=O)n3cc(Br)ccc3n2)nnc1-c1cccc(C)c1`: 4.43; `N#CC(=Cc1ccc2c(c1)OCO2)C(=O)NCc1cccc(CNC(=O)C(C#N)=Cc2ccc3c(c2)OCO3)c1`: 4.92.
`COCCn1c(C)cc(C(=O)CSc2ncnc3sc(C)c(C)c23)c1C` yielded a logD of 4.59.
The compound `O=C(CSc1nnc2c3ccccc3n(Cc3ccccc3)c2n1)OCN1C(=O)c2ccccc2C1=O` showed a logD of 4.51.
On the same count and under the same terms, the value for `CC(=O)N1CC(=O)N(CC(=O)N(Cc2ccccc2)c2nc(-c3ccccc3)cs2)C1=S` was 4.43; that for `COC(=O)c1cccc(NC(=O)c2cc(C(=O)Nc3cccc(C(=O)OC)c3)cc(N3C(=O)c4ccccc4C3=O)c2)c1` was 6.09.

The data set is the same for the next values; noted with them: pH 7.0.
The compound `Cc1ccc(C(=O)N2C(=O)c3cccc(N)c3C2=O)cc1NC(=O)c1ccco1` had a logD of 3.55.

Still in this data set, the particulars now being: pH 7.3.
In turn, `C=CCn1c(SCC(=O)NCc2ccc(C(=O)OCC)cc2)nc2sc(C)c(C)c2c1=O` had a pH-dependent lipophilicity (logD) of 4.83.
The compound `COc1cccc(Cn2cc(N)cn2)c1` returned a logD of 1.55.
Compound `COc1ccc(C2CC(=O)C3=C(C2)Nc2ccccc2N(C(=O)C(F)(F)F)C3c2cc(OC)c(OC)c(OC)c2)cc1` (centres undefined) returned a logD of 4.87.
Still for that read-out and setting: next, `COc1cccc(-c2ccc3c(N)c(C(=O)Nc4ccc(F)c(F)c4)sc3n2)c1`: 5.86; `CCOC(=O)c1c(NC(=O)CSc2nnc(C)s2)sc2c1CCCCC2`: 5.03; `Cc1nccn1S(=O)(=O)c1ccc(Cl)cc1`: 2.93.
Compound `CC(C)CCn1c(NCCO)nc2c1c(=O)n(C)c(=O)n2C` came in with a logD of 2.93.
Regarding `O=C(c1nn(-c2ccccc2)c(=O)c2ccccc12)N1CCOCC1`, the logD is 2.47.
Still for that read-out and setting: the value for `COC(=O)c1cc(OC)c(OC)cc1NC(=O)CSc1nncn1C` was 2.78.
The same measure, in the same setting: next, `COc1cccc(OC)c1C(=O)Nc1ccc(N2CCN(C(=O)c3ccccc3C)CC2)cc1`: 4.16.
`Cn1c(SCc2cc(F)cc(F)c2)nnc1-c1ccc2nonc2c1` returned a logD of 3.68.
Turning to `Cc1ccnc(N(C(=O)c2cc3c(s2)CCCC3)C(=O)c2cc3c(s2)CCCC3)c1`, the logD is 5.76.
On the same count and under the same terms, the value for `O=C(c1ccccc1)c1ccc(N2CCN(C(=O)c3c(F)cccc3F)CC2)c(F)c1` was 5.14.

Still in this data set, the particulars now being: pH 10.0.
In turn, `Cn1c(N)c(C(=O)COC(=O)C2CC2)c(=O)n(C)c1=O` returned a logD of 2.17.
Same read-out and setting: the value for `c1nc(NC2CCCC2)c2c3c(sc2n1)CCCC3` was 4.17; that for `Cc1ccc(C)n1-c1ccc(-c2ccnc3ncnn23)cc1` was 3.5.

Still in this data set, the particulars now being: pH 10.5.
For `COC(=O)COc1cc2occ(-c3csc(C)n3)c(=O)c2cc1C`, the logD worked out at 3.9.
For `Cc1ccc(S(=O)(=O)N(C)c2ccc(OCC(=O)N3CCN(c4ncccn4)CC3)cc2)cc1`, the logD was 4.46.
Compound `Cc1cc(C)n(C2=NCCN2S(=O)(=O)c2cc(C(F)(F)F)cc(C(F)(F)F)c2)n1` returned a logD of 4.7.
`CCn1cc(C2C3=C(CC(C)(C)CC3=O)N(c3ccc(C)cc3)C3=C2C(=O)CC(C)(C)C3)c(C)n1` had a logD of 5.35.
Still for that read-out and setting: next, `CCNc1nc(NC(C)C)nc(Oc2ccc(OCC)nn2)n1`: 3.14; `CC(=O)Oc1cc(C(=O)Nc2ccc(Oc3ccccc3)cc2)cc(OC(C)=O)c1OC(C)=O`: 2.89.
Still for that read-out and setting: the value for `Cc1c(C(=O)N2CCN(S(=O)(=O)c3ccccc3)CC2)sc2nc3n(c(=O)c12)CCCCC3` was 4.13; that for `C=CCNC(=O)CSc1nnc(CCn2nc(C)c(Br)c2C)n1CC` was 3.53.
`CCOc1cc(-c2nnc(-c3ccco3)o2)cc(OCC)c1OCC`: the logD turned out to be 3.96.
Same read-out and setting: next, `C=C(C)CSc1nnc(-c2cccc(S(=O)(=O)N3CCOCC3)c2)n1C1CCCC1`: 4.73; `Cn1c(N)c(C(=O)CSc2nc3ccccc3nc2SCC(=O)c2c(N)n(C)c(=O)n(C)c2=O)c(=O)n(C)c1=O`: 2.59.
Regarding `COCCn1c(C)cc(C(=O)CSc2nnc3[nH]c4ccccc4n23)c1C`, the logD was found to be 3.45.
The same measure, in the same setting: next, `CN(C)c1nc(N)nc(COC(=O)c2ccc(-n3cnnc3)cc2)n1`: 2.74; `CCCNC(=O)N1CCN(C(=O)NCCC)CC1`: 1.04.

For the origin of these results see the SangsterLogP compilation.
